In brackets after ≈: the same amount, converted by molar mass. Several values for one entry are separate records, joined by “and”; a condition that tells them apart may be missing. Equal entries are not always repeated. Where two headings read alike, the source gives them in different places. Where a SMILES comes first, the peptide text is derived from it. Bridges are numbered along the chain shown (N, C = ends). [ ]: non-standard residue; d: D form. The star is where a group is joined. Ileψ(thiazoline)Cys = CC[C@H](C)[C@H](N)C1=N[C@H](C(=O)*)CS1; dOrn = NCCC[C@@H](N)C(=O)O
What was measured:
B. loeochii SK & F 3087 = type: cell-based; conditions: Table D, Anaerobes
Providencia SK & F 276 = type: cell-based; conditions: Table A
[1] = system: Serratia marcesens ATCC 13880; type: cell-based; conditions: Table A
[2] = system: Proteus morgani SK & F 179; type: cell-based; conditions: Table A
[3] = system: Enterobacter cloacae HH31254; type: cell-based; conditions: Table A
[4] = system: Kleb. pneumoniae 4200 (SK & F 798); type: cell-based; conditions: Table A
[5] = system: Clostridium perfringens MCP-1; conditions: Table D, Anaerobes
[6] = system: Salmonella gallinarum BC595
B. fragilis SK & F 3060 = type: cell-based, Bacteroides fragilis; conditions: Table D, Anaerobes
[7] = system: Listeria monocytogenes SK & F 2255; type: cell-based; conditions: Table A
solubility = type: physicochemical
B. fragilis H145 = type: cell-based, Bacteroides fragilis; conditions: Table D, Anaerobes
[8] = system: Staph. aureus SK & F 2613; type: cell-based; conditions: Table B, Methicillin Sensitive
[9] = system: Fusobacterium nucleatum ATCC 25586; type: cell-based; conditions: Table D, Anaerobes
[10] = system: Bacteroides fragilis ATCC 25285; type: cell-based; conditions: Table D, Anaerobes
[11] = system: Pseudomonas aeruginosa HH63; type: cell-based; conditions: Table A
Swine in vitro model = experiment: swine in vitro model (growth promotant activity)
C. perfringens MCP-2 = conditions: Table D, Anaerobes
rumen in vitro model [12] = experiment: rumen in vitro model (growth promotant activity); set-up: species or system steer
[13] = system: Proteus mirabilis SK & F 444; type: cell-based; conditions: Table A
[14] = system: E. coli 12140 (SK & F 809); type: cell-based
[15] = system: B. thetaiotamicron SK & F 3089; type: cell-based; conditions: Table D, Anaerobes
rumen in vitro model [16] = experiment: rumen in vitro model (growth promotant activity); set-up: species or system steer; remark: listed apart in the source
Experimental: The protocol for the rumen in vitro model is analogous to the protocol for the swine in vitro model with the following modifications:
(1) A 400 kg steer is surgically prepared with a rumen cannula.
(2) The animal is fed one time a day with the following ration:
(3) Manipulation of VFA production is described as the production ratio of propionate as a percentage of total VFA produced.
(4) Sampling of the material, via the cannula, is at 120 minutes post feeding.

Strep. faecilis HH34358 = type: cell-based; conditions: Table A
[17] = system: Staph. aureus 209P-Mutant; experiment: microbe, parasite or virus in culture; type: cell-based; conditions: Table E
[18] = system: Strep. faecalis SK & F 657; type: cell-based; conditions: Table E
[19] = system: Staph. epidermidis SK & F 2683; type: cell-based; conditions: Table E
[20] = system: Staph. aureus SK & F 674-P6 Mutant; experiment: microbe, parasite or virus in culture; type: cell-based; conditions: Table E
[21] = system: Staph. epidermidis SK & F 2265; type: cell-based; conditions: Table E
K. aridum = experiment: susceptibility of K. aridum to antibiotics, disk diffusion method; type: cell-based, Kibdelosporangium aridum
Experimental: Susceptibility of K. aridum to antibiotics was examined by placing BBL susceptibility disks on nutrient agar plates seeded with K. aridum as an overlay. Diameters of the zones of inhibition were measured after incubation for one week at 28° C.
Chlortetracycline ([…]) produced 18 mm zones of inhibition; tetracycline (5 μg) 11-12 mm zones; rifampin (5 μg) 11-15 mm zones; novobiocin (5 μg) 27-28 mm zones. All zones of inhibition contained at least a few resistant colonies.

[22] = H2O, methanol, dimethylsulfoxide, dimethylformamide
[23] = ethanol, acetonitrile, acetone, diethylether, aliphatic hydrocarbons

Question: Which MIC (B. loeochii SK & F 3087) does the source give for `CN[C@H]1C(=O)N[C@H]2C(=O)N[C@H](C(=O)N[C@H]3C(=O)N[C@H]4C(=O)N[C@H](C(=O)N[C@H](C(=O)O)c5cc(O)cc(O[C@H]6O[C@H](CO)[C@@H](O)[C@H](O)[C@@H]6O)c5-c5cc4ccc5O)[C@H](O)c4cc(Cl)c(c(Cl)c4)Oc4cc3cc(c4O[C@@H]3O[C@H](C(=O)O)[C@@H](O)[C@H](O)[C@H]3NC(=O)CCCCCCCCC(C)C)Oc3ccc(cc3Cl)[C@H]2O)c2cc(cc(O)c2Cl)Oc2cc1ccc2O` here?
Answer: The MIC was 4 µg/mL (≈ 2.2 µM).

Question: What about the MIC (Providencia SK & F 276) of the same compound?
Answer: The MIC was over 100 µg/mL.

Question: And the MIC [1]?
Answer: The MIC was over 100 µg/mL.

Question: And the MIC [2]?
Answer: The MIC was over 100 µg/mL.

Question: What about the MIC [3] of the same compound?
Answer: Its MIC is over 100 µg/mL.

Question: What about the MIC [4] of the same compound?
Answer: The MIC was over 100 µg/mL.

Question: What about the MIC [5] of the same compound?
Answer: Its MIC is at most 0.016 µg/mL.

Question: What about the MIC ([6]; Table A) of the same compound?
Answer: The MIC was over 100 µg/mL.

Question: What about the MIC (B. fragilis SK & F 3060) of the same compound?
Answer: The MIC was 16 µg/mL (≈ 8.8 µM).

Question: And the MIC [7]?
Answer: Its MIC is ~ 0.4 μg/ml.

Question: And the solubility (solubility; [22])?
Answer: The solubility was “soluble”.

Question: What about the solubility (solubility; [23]) of the same compound?
Answer: Its solubility is “insoluble”.

Question: What about the MIC (B. fragilis H145) of the same compound?
Answer: The MIC was 8 µg/mL (≈ 4.4 µM).

Question: And the MIC [8]?
Answer: Its MIC is 1.6 µg/mL (≈ 0.88 µM).

Question: And the MIC [9]?
Answer: Its MIC is 32 µg/mL (≈ 17.6 µM).

Question: And the MIC [10]?
Answer: Its MIC is 32 µg/mL (≈ 17.6 µM).

Question: What about the MIC [11] of the same compound?
Answer: The MIC was over 100 µg/mL.

Question: What about the “GLU (glucose)” value (Swine in vitro model) of the same compound?
Answer: Its value is 191 % Control and 188 % Control and 96 % Control.

Question: And the MIC (C. perfringens MCP-2)?
Answer: Its MIC is at most 0.016 µg/mL.

Question: What about the “LYS (lysine)” value (rumen in vitro model [12]) of the same compound?
Answer: Its value is 110 % Control and 103 % Control.

Question: And the MIC [13]?
Answer: Its MIC is over 100 µg/mL.

Question: And the MIC ([14]; Table A)?
Answer: The MIC was over 100 µg/mL.

Question: What about the MIC [15] of the same compound?
Answer: The MIC was 32 µg/mL (≈ 17.6 µM).

Question: And the Propionate % (rumen in vitro model [16])?
Answer: The Propionate % was 120 % Control.

Question: And the “VFA (total of volatile fatty acids)” value (rumen in vitro model [16])?
Answer: Its value is 111 % Control.

Question: What about the MIC (Strep. faecilis HH34358) of the same compound?
Answer: The MIC was 0.8 µg/mL (≈ 0.44 µM).

Question: For `CCCCCCCCCC(=O)N[C@H]1[C@H](Oc2c3cc4cc2Oc2c(Cl)cc(cc2Cl)[C@@H](O)[C@@H]2NC(=O)[C@H](NC(=O)[C@@H]4NC(=O)[C@H]4NC(=O)[C@H](NC(=O)[C@H](NC)c5ccc(O)c(c5)Oc5cc(O)c(Cl)c4c5)[C@H](O)c4ccc(c(Cl)c4)O3)c3ccc(O)c(c3)-c3c(O[C@H]4O[C@H](CO)[C@@H](O)[C@H](O)[C@@H]4O)cc(O)cc3[C@@H](C(=O)O)NC2=O)O[C@H](C(=O)O)[C@@H](O)[C@@H]1O` [AAD 216A], which MIC [17] is on record?
Answer: The MIC was 100 µg/mL (≈ 55.9 µM).

Question: What about the MIC (Providencia SK & F 276) of the same compound?
Answer: Its MIC is over 100 µg/mL.

Question: What about the MIC [1] of the same compound?
Answer: Its MIC is over 100 µg/mL.

Question: What about the MIC [18] of the same compound?
Answer: The MIC was 0.8 µg/mL (≈ 0.447 µM).

Question: What about the MIC [2] of the same compound?
Answer: The MIC was over 100 µg/mL.

Question: What about the MIC [3] of the same compound?
Answer: Its MIC is over 100 µg/mL.

Question: What about the MIC [4] of the same compound?
Answer: The MIC was over 100 µg/mL.

Question: And the MIC ([6]; Table A)?
Answer: The MIC was over 100 µg/mL.

Question: What about the MIC ([6]; Table E) of the same compound?
Answer: Its MIC is over 100 µg/mL.

Question: And the MIC (B. fragilis SK & F 3060)?
Answer: Its MIC is 32 µg/mL (≈ 17.9 µM).

Question: And the solubility (solubility; [22])?
Answer: Its solubility is “soluble”.

Question: What about the solubility (solubility; [23]) of the same compound?
Answer: Its solubility is “insoluble”.

Question: What about the MIC [19] of the same compound?
Answer: Its MIC is 100 µg/mL (≈ 55.9 µM).

Question: And the MIC [9]?
Answer: Its MIC is 32 µg/mL (≈ 17.9 µM).

Question: What about the MIC [10] of the same compound?
Answer: The MIC was 32 µg/mL (≈ 17.9 µM).

Question: And the MIC [11]?
Answer: The MIC was over 100 µg/mL.

Question: And the “GLU (glucose)” value (Swine in vitro model)?
Answer: The value was 187 % Control and 191 % Control.

Question: And the “LYS (lysine)” value (Swine in vitro model)?
Answer: The value was 63 % Control and 50 % Control and 94 % Control.

Question: And the “LYS (lysine)” value (rumen in vitro model [12])?
Answer: Its value is 114 % Control.

Question: And the MIC [20]?
Answer: The MIC was ~ 100 μg/ml.

Question: What about the MIC [13] of the same compound?
Answer: The MIC was over 100 µg/mL.

Question: What about the MIC ([14]; Table A) of the same compound?
Answer: Its MIC is over 100 µg/mL.

Question: And the MIC ([14]; Table E)?
Answer: Its MIC is over 100 µg/mL.

Question: And the MIC [15]?
Answer: The MIC was over 32 µg/mL.

Question: And the “VFA (total of volatile fatty acids)” value (rumen in vitro model [16])?
Answer: The value was 111 % Control and 94 % Control.

Question: And the MIC [21]?
Answer: Its MIC is 100 µg/mL (≈ 55.9 µM).

Question: For `CN(C)[C@@H]1C(O)=C(C(N)=O)C(=O)[C@@]2(O)C(O)=C3C(=O)c4c(O)ccc(Cl)c4[C@@](C)(O)[C@H]3C[C@@H]12` [Chlortetracycline], which zone of inhibition at 5 µg/disc (K. aridum; Kibdelosporangium aridum, 168 h) is on record?
Answer: Its zone of inhibition at 5 µg/disc is 18 mm.

Question: What does the source list for `CC[C@@]1([C@H]2O[C@H]([C@H]3O[C@@](O)(CO)[C@H](C)C[C@@H]3C)C[C@H]2C)CC[C@H]([C@@]2(C)CC[C@]3(C[C@H](O)[C@@H](C)[C@@H]([C@H](C)[C@H](OC)[C@@H](C)C(=O)O)O3)O2)O1` [Monensin Sodium]?
Answer: LYS (lysine) (rumen in vitro model [12]): 147 % Control and 141 % Control; Propionate % (rumen in vitro model [16]): 156 % Control and 149 % Control and 119 % Control; VFA (total of volatile fatty acids) (rumen in vitro model [16]): 104 % Control and 94 % Control

Question: Which “susceptibility of K. aridum” value (K. aridum; disk 2 units) does the source give for `CC[C@H](C)[C@H](N)C1=N[C@H](C(=O)N[C@@H](CC(C)C)C(=O)N[C@H](CCC(=O)O)C(=O)N[C@H](C(=O)N[C@H]2CCCCNC(=O)[C@H](CC(N)=O)NC(=O)[C@@H](CC(=O)O)NC(=O)[C@H](Cc3cnc[nH]3)NC(=O)[C@@H](Cc3ccccc3)NC(=O)[C@H]([C@@H](C)CC)NC(=O)[C@@H](CCCN)NC2=O)[C@@H](C)CC)CS1` [bacitracin] ({Ileψ(thiazoline)Cys}-L[dE]IK[dOrn]I[dF]H[dD]N; lactam 4-C) here?
Answer: The value was “resistant”.

Question: For `CC(=O)OCC1=C(C(=O)O)N2C(=O)[C@@H](NC(=O)Cc3cccs3)[C@H]2SC1` [cephalothin], which “susceptibility of K. aridum” value (K. aridum; disk 30 μg) is on record?
Answer: Its value is “resistant”.

Question: For `CCC[C@@H]1C[C@@H](C(=O)N[C@@H]([C@H]2O[C@H](SC)[C@H](O)[C@@H](O)[C@H]2O)[C@H](C)Cl)N(C)C1` [clindamycin], which “susceptibility of K. aridum” value (K. aridum; disk 2 μg) is on record?
Answer: The value was “resistant”.

Question: For `CCC[C@@H]1C[C@@H](C(=O)N[C@@H]([C@H]2O[C@H](SC)[C@H](O)[C@@H](O)[C@H]2O)[C@@H](C)O)N(C)C1` [lincomycin], which “susceptibility of K. aridum” value (K. aridum; disk 2 μg) is on record?
Answer: Its value is “resistant”.
